{"source": "patent US20250221947A1", "about": "“METHODS FOR TREATING A CORONAVIRUS INFECTION USING VALPROIC ACID AND DOCOSAHEXAENOIC ACID” (priority 2024, published 2025)", "key": {"HCoV-229E [1]": {"test_system": "HCoV-229E", "experiment": "HCoV-229E viral replication inhibition in MRC5 cells (antibody- or oligonucleotide-based dot blot)", "format": "cell-based, human coronavirus HCoV-229E", "settings": "for inhibition of HCoV-229E viral replication, agent alone: MRC5, MOI 0.1, 48 hours drug, antibody-based assay; for IC50: Human coronavirus 229E; for fold reduction of IC50 for inhibition of viral replication by VPA preincubation: preincubation 24 or 48 hours / at least 24 hours prior to infection"}, "p21": {"test_system": "p21", "experiment": "p21 induction time course in Vero cells", "format": "cell-based", "settings": "2.55 mM VPA"}, "HCoV-229E [2]": {"test_system": "HCoV-229E", "experiment": "Viral RNA as % of total RNA by RNAseq in MRC5 cells infected with HCoV-229E", "format": "cell-based, human coronavirus HCoV-229E", "settings": "drug added after 1 hour viral incubation, 48 hours; VPA 0.1 or 0.5 mM, DHA 25 μM"}, "COVID-19 [3]": {"test_system": "COVID-19", "settings": "therapeutic VPA cohort; serum levels for 442 of 691 patients; cited from earlier work"}, "SARS-CoV2 [4]": {"test_system": "SARS-CoV2", "experiment": "Optum dataset case-control analysis: COVID-19 positivity by nucleic acid testing in patients prescribed VPA", "format": "in vivo", "settings": "patients prescribed VPA vs not, exact-matched multivariate analysis"}, "[5]": {"experiment": "Serum VPA levels in a national data set (LabCorp)"}, "MRC5 cells": {"test_system": "MRC5 cells", "experiment": "VPA time course RNAseq in MRC5 cells, SARS-CoV2 interacting (Gordon) gene set", "format": "cell-based, Homo sapiens"}, "[6]": {"settings": "in vivo; cited from earlier work"}, "HDAC2": {"biological_target": "HDAC2 (Chlorocebus sabaeus, UniProt A0A0D9RT33)", "sequence (A0A0D9RT33 1-488)": "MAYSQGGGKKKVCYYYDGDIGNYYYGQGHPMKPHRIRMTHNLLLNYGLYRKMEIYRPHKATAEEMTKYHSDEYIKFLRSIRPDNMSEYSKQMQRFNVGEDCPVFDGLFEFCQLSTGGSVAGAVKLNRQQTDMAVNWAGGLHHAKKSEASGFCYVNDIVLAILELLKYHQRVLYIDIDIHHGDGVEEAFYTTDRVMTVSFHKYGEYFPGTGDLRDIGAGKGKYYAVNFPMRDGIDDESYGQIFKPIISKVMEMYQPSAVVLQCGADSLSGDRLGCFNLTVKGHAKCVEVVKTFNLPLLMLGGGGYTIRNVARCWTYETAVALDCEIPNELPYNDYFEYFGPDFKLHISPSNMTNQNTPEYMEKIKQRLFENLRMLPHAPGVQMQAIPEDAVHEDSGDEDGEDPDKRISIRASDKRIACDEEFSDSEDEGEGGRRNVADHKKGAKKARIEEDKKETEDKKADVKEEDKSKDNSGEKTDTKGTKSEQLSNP", "experiment": "Direct inhibition of HDAC2 activity in Vero cells", "format": "cell-based", "settings": "read-out: IC50 of directly inhibiting HDAC2 activity"}, "SARS-CoV2 [7]": {"test_system": "SARS-CoV2", "experiment": "SARS-CoV2 replication in MRC5 cells, viral RNA by qRT-PCR", "format": "cell-based"}, "SARS-CoV2 [8]": {"test_system": "SARS-CoV2", "settings": "dose range of VPA (M range) less than the IC50 of HDAC2 inhibition; cited from earlier work"}, "COVID-19 [9]": {"test_system": "COVID-19", "experiment": "Optum retrospective cohort: clinical progression of COVID-19 in patients prescribed or not prescribed VPA", "format": "in vivo"}, "[10]": {"settings": "use in pregnant women; cited from earlier work"}, "COVID-19 [11]": {"test_system": "COVID-19", "settings": "165 VPA-treated patients admitted for COVID-19; cited from earlier work"}, "[12]": {"settings": "patients on VPA tested by LabCorp, 2021"}, "[13]": {"settings": "COVID-19 infected patients exposed to VPA, propensity-matched or multivariate-adjusted model"}}, "note": "Values joined by “and” are separate entries in the source; they are usually repeats but may differ in a detail not shown here. Identical values can stand only once. “Also recorded” adds a separate entry of the source. Like-named read-outs stand apart in the source and are kept apart here."}
{"smiles": "CC(/C=C/C(=O)NO)=C\\[C@@H](C)C(=O)c1ccc(N(C)C)cc1", "note": "[Trichostatin A, trichostatin A]", "values": [{"measurement": "inhibition of HCoV-229E viral replication, agent alone", "setting": "HCoV-229E [1]", "value": "did not significantly inhibit viral replication"}, {"measurement": "inhibition of viral replication in combination with DHA", "setting": "HCoV-229E [1]; with 25 μM DHA", "value": "inhibition across the board; also recorded: augmented at the very highest dose of Trichostatin A tested"}]}
{"smiles": "CCCC(CCC)C(=O)O", "note": "[VPA, valproic acid]", "values": [{"measurement": "time of earliest p21 induction", "setting": "p21", "value": 24, "unit": "h"}, {"measurement": "time of maximal p21 induction", "setting": "p21", "value": 72, "unit": "h"}, {"measurement": "effect on viral replication (viral RNA as % of total RNA)", "setting": "HCoV-229E [2]", "value": "not significantly impacted"}, {"measurement": "IC50", "setting": "HCoV-229E [1]; MRC5, HCoV-229E, no preincubation, read-out: IC50 in conventional coronavirus replication assay", "value": "~5000", "unit": "µM"}, {"measurement": "IC50", "setting": "HCoV-229E [1]; MRC5, HCoV-229E, no preincubation, read-out: IC50 in conventional coronavirus replication assay, translated", "value": "> 720", "unit": "µg/mL"}, {"measurement": "IC50", "setting": "HCoV-229E [1]; MRC5, read-out: IC50 for inhibition of viral replication, MRC5 incubated with valproic acid at least 24 hours prior to infection", "value": "~600", "unit": "µM"}, {"measurement": "IC50", "setting": "HCoV-229E [1]; MRC5, read-out: IC50 for inhibition of viral replication, corresponding serum level, MRC5 incubated with valproic acid at least 24 hours prior to infection", "value": 85, "unit": "µg/mL"}, {"measurement": "dose required for antiviral activity", "setting": "HCoV-229E [1]; VPA used alone, in vitro testing", "value": "> 0.6", "unit": "mM"}, {"measurement": "dose requirement of VPA for antiviral activity in combination with DHA", "setting": "HCoV-229E [1]; combination of DHA and VPA in vitro (FIG. 4B)", "value": 0.1, "unit": "mM"}, {"measurement": "fold reduction of IC50 for inhibition of viral replication by VPA preincubation", "setting": "HCoV-229E [1]", "value": "more than 3 fold"}, {"measurement": "fold reduction of IC50 for inhibition of viral replication by VPA preincubation", "setting": "HCoV-229E [1]; listed as valproic acid", "value": "~10", "unit": "fold"}, {"measurement": "OR for contracting COVID-19", "setting": "COVID-19 [3]", "value": 0.218}, {"measurement": "decreased risk of contracting COVID-19 / reduction in COVID-19 positive testing", "setting": "SARS-CoV2 [4]", "value": 25, "unit": "%"}, {"measurement": "share of samples testing 79 μg/mL or higher", "setting": "[5]; LabCorp, second quarter of 2021", "value": 25, "unit": "%"}, {"measurement": "serum VPA level, mean", "setting": "[5]; [12]", "value": "56.7 µg/mL and 56.65 µg/mL"}, {"measurement": "serum VPA level, median", "setting": "[5]; [12]", "value": "59.0 µg/mL and 59 µg/mL"}, {"measurement": "expression of viral pathogenicity and replication genes (Gordon gene set)", "setting": "MRC5 cells; MRC5 cells, VPA 24 and 48 hours", "value": "down-regulated preferentially"}, {"measurement": "time before gene expression profile changes can be detected", "setting": "MRC5 cells; coronavirus permissive cell lines, VPA time course", "value": "at least 24 hours"}, {"measurement": "time of maximal gene expression profile changes", "setting": "MRC5 cells; coronavirus permissive cell lines, VPA time course, in some cases", "value": "72 to 96", "unit": "h"}, {"measurement": "target serum concentrations for seizure disorder", "setting": "[6]", "value": "50 to 100", "unit": "µg/mL"}, {"measurement": "IC50", "setting": "HDAC2", "value": "≥ 2500", "unit": "µM"}, {"measurement": "reduction by 24 hours preincubation", "setting": "SARS-CoV2 [7]; 24 hours preincubation vs none", "value": "more than 50%"}, {"measurement": "inhibitory activity against SARS-CoV2", "setting": "SARS-CoV2 [7]; MRC5, MOI 0.1, VPA 0.5 mM, DHA 25 μM", "value": "substantial inhibitory activity"}, {"measurement": "effect of (additional) preincubation", "setting": "SARS-CoV2 [7]; VPA: additional preincubation up to 5 days, DHA: preincubation", "value": "did not provide any additional effects"}, {"measurement": "% viral RNA detected compared to control MRC5 cells without drug", "setting": "SARS-CoV2 [7]; preincubation by 24 hours", "value": "less than 10%"}, {"measurement": "% viral RNA detected compared to control MRC5 cells without drug", "setting": "SARS-CoV2 [7]; without preincubation", "value": 20, "unit": "%"}, {"measurement": "inhibition of viral infection", "setting": "SARS-CoV2 [8]", "value": "no measurable inhibition of viral infection"}, {"measurement": "reduction in ER visits", "setting": "COVID-19 [9]; [13]", "value": "12-15%"}, {"measurement": "reduction in ICU admissions", "setting": "COVID-19 [9]; [13]", "value": "14-16%"}, {"measurement": "reduction in hospital admission", "setting": "COVID-19 [9]; [13]", "value": "17-45%"}, {"measurement": "reduction in mechanical ventilation", "setting": "COVID-19 [9]; [13]", "value": "33-39%"}, {"measurement": "protective effect against emergency room visits", "setting": "COVID-19 [9]; univariate (unadjusted) logistic regression", "value": "no protective effect against emergency room visits"}, {"measurement": "elevation of the risk of certain birth defects", "setting": "[10]", "value": "roughly three-fold"}, {"measurement": "clinical course vs matched controls", "setting": "COVID-19 [11]", "value": "shorter duration of symptoms, lower in-hospital respiratory worsening, lower ICU admissions, and fewer pulmonary infiltrates"}, {"measurement": "mortality vs matched controls", "setting": "COVID-19 [11]", "value": "not statistically different"}]}
{"smiles": "C/C=C1\\NC(=O)[C@H]2CSSCC/C=C/[C@H](CC(=O)N[C@H](C(C)C)C(=O)N2)OC(=O)[C@H](C(C)C)NC1=O", "note": "[depsipeptide]", "values": [{"measurement": "IC50", "setting": "HCoV-229E [1]; MRC5, read-out: IC50 of inhibition of viral replication, with 25 μM DHA", "value": 0.0001, "unit": "µM"}, {"measurement": "IC50", "setting": "HCoV-229E [1]; MRC5, read-out: IC50 of inhibition of viral replication, without DHA", "value": 0.0008, "unit": "µM"}, {"measurement": "inhibition of HCoV-229E viral replication, agent alone", "setting": "HCoV-229E [1]", "value": "significant inhibition of viral replication"}]}
{"smiles": "CCCCC/C=C\\C/C=C\\CCCCCCCC(=O)O", "note": "[LA, linoleic acid]", "values": [{"measurement": "inhibition of HCoV-229E viral replication, agent alone", "setting": "HCoV-229E [1]", "value": "substantial inhibitory effect; also recorded: significant inhibition of viral replication"}]}
{"smiles": "CC/C=C\\C/C=C\\C/C=C\\CCCCCCCC(=O)O", "note": "[ALA, alpha-linolenic acid]", "values": [{"measurement": "inhibition of HCoV-229E viral replication, agent alone", "setting": "HCoV-229E [1]", "value": "least impact; also recorded: least inhibition"}]}
